Assay results reported in ChEMBL document CHEMBL1201862, “PubChem BioAssay data set” (2004).
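Tested at 5 concentrations; 48 h exposure; 96-well plates; endpoints linearly interpolated, else capped at highest concentration. GI50 is the concentration that inhibits growth by half.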 The source made the active and inactive calls. No stated cut-off is given here; in the data, active = GI50 up to about 1.1 µM and inactive = higher.

Columns and labels:
Assay in all cases: NCI anticancer screen, dose series, 48 h
SNB-78 = system: SNB-78
DMS-273 = system: DMS-273
HCC 2998 = system: HCC 2998
SNB-19 = system: SNB-19
DMS-114 = system: DMS-114
K562 = system: K562
OVCAR-5 = system: OVCAR-5
A498 = system: A498
SK-MEL-28 = system: SK-MEL-28
U-251 = system: U-251
NCI-H460 = system: NCI-H460
KM-20L2 = system: KM-20L2
HT-29 = system: HT-29
SK-OV-3 = system: SK-OV-3
ACHN = system: ACHN
NCI-H522 = system: NCI-H522
KM12 = system: KM12
SF-268 = system: SF-268
EKVX = system: EKVX
SR = system: SR
HOP-62 = system: HOP-62
COLO 205 = system: COLO 205
NCI-H23 = system: NCI-H23
A549 = system: A549
NCI-H226 = system: NCI-H226
OVCAR-8 = system: OVCAR-8
M19-MEL = system: M19-MEL
OVCAR-3 = system: OVCAR-3
RPMI-8226 = system: RPMI-8226
UO-31 = system: UO-31
CCRF-CEM = system: CCRF-CEM
LXFL 529 = system: LXFL 529
TK-10 = system: TK-10
SK-MEL-2 = system: SK-MEL-2
786-0 = system: 786-0
SF-539 = system: SF-539
M14 = system: M14
HCT-15 = system: HCT-15
SNB-75 = system: SNB-75
SF-295 = system: SF-295
HL-60 = system: HL-60
IGROV-1 = system: IGROV-1
UACC-257 = system: UACC-257
RXF 393 = system: RXF 393
SW-620 = system: SW-620
OVCAR-4 = system: OVCAR-4
SN12C = system: SN12C
DLD-1 = system: DLD-1
MOLT-4 = system: MOLT-4
HCT-116 = system: HCT-116
UACC-62 = system: UACC-62
RXF 631 = system: RXF 631
Malme-3M = system: Malme-3M

CCc1ccccc1NC(=O)/C(CC(=O)c1c(C)[n+]([O-])c2ccccc2[n+]1[O-])=N\NS(=O)(=O)c1ccc(C)cc1
GI50 (SNB-78): 33.7 µM (inactive) | GI50 (DMS-273): 35.4 µM (inactive) | GI50 (HCC 2998): 47.1 µM (inactive) | GI50 (SNB-19): > 100 µM (inactive) | GI50 (DMS-114): 12.3 µM (inactive) | GI50 (K562): 27.2 µM (inactive) | GI50 (OVCAR-5): > 100 µM (inactive) | GI50 (A498): > 100 µM (inactive) | GI50 (SK-MEL-28): 47.9 µM (inactive) | GI50 (U-251): 27 µM (inactive) | GI50 (NCI-H460): 25.6 µM (inactive) | GI50 (KM-20L2): > 100 µM (inactive) | GI50 (HT-29): 38.7 µM (inactive) | GI50 (SK-OV-3): > 100 µM (inactive) | GI50 (ACHN): 57 µM (inactive) | GI50 (NCI-H522): 16.1 µM (inactive) | GI50 (KM12): 36.9 µM (inactive) | GI50 (SF-268): 25.8 µM (inactive) | GI50 (EKVX): 46 µM (inactive) | GI50 (SR): 16.6 µM (inactive) | GI50 (HOP-62): > 100 µM (inactive) | GI50 (COLO 205): 36.8 µM (inactive) | GI50 (NCI-H23): 35.2 µM (inactive) | GI50 (A549): 34.9 µM (inactive) | GI50 (NCI-H226): > 100 µM (inactive) | GI50 (OVCAR-8): 27 µM (inactive) | GI50 (M19-MEL): 16 µM (inactive) | GI50 (OVCAR-3): 12.1 µM (inactive) | GI50 (RPMI-8226): 12.2 µM (inactive) | GI50 (UO-31): > 100 µM (inactive) | GI50 (CCRF-CEM): 16.7 µM (inactive) | GI50 (LXFL 529): 26.3 µM (inactive) | GI50 (TK-10): > 100 µM (inactive) | GI50 (SK-MEL-2): > 100 µM (inactive) | GI50 (786-0): 87.5 µM (inactive) | GI50 (SF-539): 36.6 µM (inactive) | GI50 (M14): 32.8 µM (inactive) | GI50 (HCT-15): 33.7 µM | GI50 (SNB-75): > 100 µM (inactive) | GI50 (SF-295): > 100 µM (inactive) | GI50 (HL-60): 15.8 µM (inactive) | GI50 (IGROV-1): 26.5 µM (inactive) | GI50 (UACC-257): 23.9 µM (inactive) | GI50 (RXF 393): > 100 µM (inactive) | GI50 (SW-620): 25.9 µM (inactive) | GI50 (OVCAR-4): 22.5 µM (inactive) | GI50 (SN12C): 28.8 µM (inactive) | GI50 (DLD-1): 24 µM (inactive) | GI50 (MOLT-4): 18 µM (inactive) | GI50 (HCT-116): 16.8 µM (inactive) | GI50 (UACC-62): 18.9 µM (inactive) | GI50 (RXF 631): > 100 µM (inactive) | GI50 (Malme-3M): 57.4 µM (inactive)
